Assay: Plasma sCT pharmacokinetics after a single dose, phase I crossover study
Type: in vivo, healthy postmenopausal women
Method: The study was a randomized, partially-blind, placebo-controlled, single dose, exploratory crossover study to assess the PK and PD of 0.8 mg SMC021 in healthy postmenopausal women when taken in the morning with different volumes of water (50 or 200 ml) and at different times before a meal (10, 30, or 60 minutes). Subjects were blinded to treatment with SMC021 and placebo, but were not blinded to water volume intake and pre-meal dosing time. The PK and PD profiles of Miacalcic® 200 IU NS were additionally assessed in an open-label manner in a small subset of subjects.
Females fulfilling the inclusion criteria of being generally healthy ambulatory female volunteers, aged between 40–70 years and having passed a natural or surgically-induced menopause at least 5 years before entering the study and being without diseases or medications known to affect bone metabolism were allowed to participate. The study was of a 5-period, 10-treatment, 56-sequence crossover design. Subjects were randomly allocated to a sequence. The study contained 10 possible treatments, comprising a combination of study medication of SMC021, placebo, and Miacalcic® NS), water volume given with the tablet (50/200 ml water, and dosing time to meal (10, 30 or 60 minutes pre-meal) as outlined in Table 1. To reduce the burden of treatment to the subjects, an incomplete cross-over design was used. […]
The concentration of plasma sCT was measured by as chemiluminescence-based assay that previously have been described. Values measured below the lower limit of quantification of 2.5 pg/ml was assigned the value of 2.5 pg/ml. […] The lower limit of quantification (LLOQ) was 2.5 pg/mL. The quality control (QC) samples, ranging from 2.5 pg/mL to 700 pg/mL, were prepared daily and measured in 3 to 5 replicates. The overall accuracy and precision (CV) of QC samples, measured on 11 different days was 101.3% and 10.1% for 2.5 pg/mL concentration and 94.3% and 6.0% for 700 pg/mL concentration, respectively. […]

time to maximum plasma sCT concentration after drug intake (minimal if any effect of water and meal time): approximately 15 minutes
fold sCT AUC0–4 with 50 ml of water versus nasal calcitonin (oral 0.8 mg with 50 ml water vs 200 IU nasal spray): 4 fold
fold higher absorption of sCT with 50 ml as compared with 200 ml of water (oral 0.8 mg, Cmax and AUC0–4, irrespective of meal timing (10, 30, 60 min)): two-fold increase
Substance: salmon calcitonin [sCT]
